From US20120316187A1, “MOLECULAR BIOMARKERS FOR PREDICTING RESPONSE TO TYROSINE KINASE INHIBITORS IN LUNG CANCER” (PANGAEA BIOTECH, S.L., priority 2009, published 2012)
Where two headings read alike, the source gives them in different places.

What was measured:
T790M resistance mutants = conditions: in vitro; cited from earlier work
[1] = system: non-small-cell lung cancer patients with EGFR mutations; conditions: for TTP (months): first line treatment with erlotinib
Description: The term “clinical response”, as used herein, refers to the response of the subject suffering from NSCLC to a therapy with a tyrosine kinase inhibitor. Standard criteria (Miller, et al. Cancer, 1981; 47:207-14) that can be used herewith to evaluate the response to chemotherapy include response, stabilization and progression. It can be a complete response (or complete remission) which is the disappearance of all detectable malignant disease or a partial response which is defined as approximately >50% decrease in the sum of products of the largest perpendicular diameters of one or more lesions (tumor lesions), no new lesions and no progression of any lesion. Patients achieving complete or partial response were considered “responders”, and all other patients were considered “non-responders”.
The presence of the T790M mutation was examined in 129 patients for whom pretreatment tumor tissue was available.

[2] = 81 patients, BRCA1 4.92-10.7 N = 27
[3] = 81 patients, BRCA1 >10.7 N = 27
[4] = 81 patients, BRCA1 ≦4.92 N = 27
[5] = 129 patients, patients with the T790M mutation
[6] = 129 patients, patients without the T790M mutation
[7] = patients with the T790M mutation, BRCA1 4.92-11.79
[8] = patients with the T790M mutation, BRCA1 >11.79
[9] = patients with the T790M mutation, BRCA1 ≦4.92
[10] = patients without the T790M mutation, BRCA1 4.92-11.79
[11] = patients without the T790M mutation, BRCA1 >11.79
[12] = patients without the T790M mutation, BRCA1 ≦4.92

CC#CC(=O)Nc1ccc2ncnc(Nc3cccc(Br)c3)c2c1 [CL-387,785]
inhibition of growth of the T790M resistance mutants (T790M resistance mutants): inhibit the growth of the T790M resistance mutants

C#Cc1cccc(Nc2ncnc3cc(OCCOC)c(OCCOC)cc23)c1 [erlotinib, [6,7-bis(2-methoxyethoxy)-4-quinazolin-4-yl]-(3-ethynylphenyl)amine]
median progression-free survival ([1]; 28 patients harboring the T790M mutation, high BRCA1 levels): 8 months | median progression-free survival ([1]; 28 patients harboring the T790M mutation, intermediate BRCA1 levels): 4 months | median progression-free survival ([1]; 28 patients harboring the T790M mutation, low BRCA1 levels): 19 months | progression-free survival ([1]; 34 patients receiving erlotinib as first-line treatment (so in the source), high BRCA1 levels): 9 months | progression-free survival ([1]; 34 patients receiving erlotinib as first-line treatment (so in the source), intermediate BRCA1 levels): 24 months | progression-free survival ([1]; 34 patients receiving erlotinib as first-line treatment (so in the source), low BRCA1 levels): not reached | progression-free survival ([1]; 47 patients receiving erlotinib as first-line treatment, high BRCA1 levels): 16 months | progression-free survival ([1]; 47 patients receiving erlotinib as first-line treatment, intermediate BRCA1 levels): 9 months | progression-free survival ([1]; 47 patients receiving erlotinib as first-line treatment, low BRCA1 levels): 27 months | median progression-free survival ([1]; 53 patients without the T790M mutation, high BRCA1 levels): 12 months | median progression-free survival ([1]; 53 patients without the T790M mutation, intermediate BRCA1 levels): not reached | median progression-free survival ([1]; 53 patients without the T790M mutation, low BRCA1 levels): 27 months | progression-free survival ([1]; 64 patients receiving erlotinib as second-line treatment, with the T790M mutation): 13 months | progression-free survival ([1]; 64 patients receiving erlotinib as second-line treatment, without the T790M mutation): 18 months | progression-free survival ([1]; 65 patients receiving erlotinib as first-line treatment, with the T790M mutation): 8 months | progression-free survival ([1]; 65 patients receiving erlotinib as first-line treatment, without the T790M mutation): 18 months | Complete or partial response, (%) [1, 2]: (72) % | Complete response, (%) [1, 2]: (16) % | Partial response, (%) [1, 2]: (56) % | Progressive disease, (%) [1, 2]: (12) % | Stable disease, (%) [1, 2]: (16) % | Complete or partial response, (%) [1, 3]: (68.2) % | Complete response, (%) [1, 3]: (9.1) % | Partial response, (%) [1, 3]: (59.1) % | Progressive disease, (%) [1, 3]: (9.1) % | Stable disease, (%) [1, 3]: (22.7) % | Complete or partial response, (%) [1, 4]: (76) % | Complete response, (%) [1, 4]: (20) % | Partial response, (%) [1, 4]: (56) % | Progressive disease, (%) [1, 4]: (8) % | Stable disease, (%) [1, 4]: (16) % | Median progression-free survival to erlotinib ([1]; 81 patients, high BRCA1 levels): 10 months | Median progression-free survival to erlotinib ([1]; 81 patients, intermediate BRCA1 levels): 18 months | Overall survival ([1]; 81 patients, intermediate or high BRCA1 levels): not reached | Median progression-free survival to erlotinib ([1]; 81 patients, low BRCA1 levels): 27 months | Overall survival ([1]; 81 patients, low BRCA1 levels): 33 months | Overall survival [1, 5]: 27 months | median progression-free survival [1, 5]: 12 months | Overall survival [1, 6]: 29 months | median progression-free survival [1, 6]: 18 months | Complete or partial response, (%) ([1]; All patients N = 129): (68.9) % | Complete response, (%) ([1]; All patients N = 129): (10.3) % | Partial response, (%) ([1]; All patients N = 129): (58.6) % | Progressive disease, (%) ([1]; All patients N = 129): (12.9) % | Stable disease, (%) ([1]; All patients N = 129): (18.1) % | Complete or partial response, (%) ([1]; T790M-negative N = 84): (72.3) % | Complete response, (%) ([1]; T790M-negative N = 84): (13.9) % | Partial response, (%) ([1]; T790M-negative N = 84): (58.3) % | Progressive disease, (%) ([1]; T790M-negative N = 84): (11.1) % | Stable disease, (%) ([1]; T790M-negative N = 84): (16.7) % | Complete or partial response, (%) ([1]; T790M-positive N = 45): (63.6) % | Complete response, (%) ([1]; T790M-positive N = 45): (4.5) % | Partial response, (%) ([1]; T790M-positive N = 45): (59.1) % | Progressive disease, (%) ([1]; T790M-positive N = 45): (15.9) % | Stable disease, (%) ([1]; T790M-positive N = 45): (20.5) % | TTP (months) ([1]; T790M mutation No, BRCA1 levels High/Intermediate): 18 months | TTP (months) ([1]; T790M mutation No, BRCA1 levels Low): 27 months | TTP (months) ([1]; T790M mutation Yes, BRCA1 levels High/Intermediate): 3 months | TTP (months) ([1]; T790M mutation Yes, BRCA1 levels Low): 27 months | Complete or partial response, number of patients [1, 7]: 5 | Complete or partial response, share in parentheses [1, 7]: (55.6) | Complete response, number of patients [1, 7]: 0 | Complete response, share in parentheses [1, 7]: (0) | Partial response, number of patients [1, 7]: 5 | Partial response, share in parentheses [1, 7]: (55.6) | Progressive disease, number of patients [1, 7]: 2 | Progressive disease, share in parentheses [1, 7]: (22.2) | Stable disease, number of patients [1, 7]: 2 | Stable disease, share in parentheses [1, 7]: (22.2) | Complete or partial response, number of patients [1, 8]: 7 | Complete or partial response, share in parentheses [1, 8]: (77.8) | Complete response, number of patients [1, 8]: 1 | Complete response, share in parentheses [1, 8]: (11.1) | Partial response, number of patients [1, 8]: 6 | Partial response, share in parentheses [1, 8]: (66.7) | Progressive disease, number of patients [1, 8]: 1 | Progressive disease, share in parentheses [1, 8]: (11.1) | Stable disease, number of patients [1, 8]: 1 | Stable disease, share in parentheses [1, 8]: (11.1) | Complete or partial response, number of patients [1, 9]: 7 | Complete or partial response, share in parentheses [1, 9]: (70) | Complete response, number of patients [1, 9]: 1 | Complete response, share in parentheses [1, 9]: (10) | Partial response, number of patients [1, 9]: 6 | Partial response, share in parentheses [1, 9]: (60) | Progressive disease, number of patients [1, 9]: 1 | Progressive disease, share in parentheses [1, 9]: (10) | Stable disease, number of patients [1, 9]: 2 | Stable disease, share in parentheses [1, 9]: (20) | Complete or partial response, number of patients [1, 10]: 13 | Complete or partial response, share in parentheses [1, 10]: (76.5) | Complete response, number of patients [1, 10]: 4 | Complete response, share in parentheses [1, 10]: (23.5) | Partial response, number of patients [1, 10]: 9 | Partial response, share in parentheses [1, 10]: (52.9) | Progressive disease, number of patients [1, 10]: 1 | Progressive disease, share in parentheses [1, 10]: (5.9) | Stable disease, share in parentheses [1, 10]: (17.6) | Complete or partial response, number of patients [1, 11]: 7 | Complete or partial response, share in parentheses [1, 11]: (63.6) | Complete response, number of patients [1, 11]: 1 | Complete response, share in parentheses [1, 11]: (9.1) | Partial response, number of patients [1, 11]: 6 | Partial response, share in parentheses [1, 11]: (54.5) | Progressive disease, number of patients [1, 11]: 1 | Progressive disease, share in parentheses [1, 11]: (9.1) | Stable disease, share in parentheses [1, 11]: (27.3) | Complete or partial response, number of patients [1, 12]: 13 | Complete or partial response, share in parentheses [1, 12]: (81.3) | Complete response, number of patients [1, 12]: 4 | Complete response, share in parentheses [1, 12]: (25) | Partial response, number of patients [1, 12]: 9 | Partial response, share in parentheses [1, 12]: (56.3) | Progressive disease, number of patients [1, 12]: 1 | Progressive disease, share in parentheses [1, 12]: (6.3) | Stable disease, number of patients [1, 12]: 2 | Stable disease, share in parentheses [1, 12]: (12.5) | progression-free survival ([1]; subgroup of 48 patients with L858R, with the T790M mutation): 16 months | progression-free survival ([1]; subgroup of 48 patients with L858R, without the T790M mutation): 15 months | progression-free survival ([1]; subgroup of 81 patients with del 19, with the T790M mutation): 12 months | progression-free survival ([1]; subgroup of 81 patients with del 19, without the T790M mutation): 20 months
